Test results as given in PMC9617675 (Antiviral Research, 2022).
Values joined by “and” are separate entries in the source; they are usually repeats but may differ in a detail not shown here. Equal entries are not always repeated. Where two headings read alike, the source gives them in different places.

Experiments:
in vitro = details: African green monkey
[1] = tested on: SARS-CoV-2 wild-type (2019-nCoV-WIV04); format: cell-based
[2] = tested on: SARS-CoV-2 B.1.1.7 (Alpha); format: cell-based; details: Vero E6 cells, mean ± SD
[3] = tested on: SARS-CoV-2 B.1.351 (Beta); format: cell-based; details: Vero E6 cells, mean ± SD
[4] = tested on: SARS-CoV-2 B.1.617.2 (Delta); format: cell-based; details: Vero E6 cells, mean ± SD
[5] = tested on: SARS-CoV-2 (2019-nCoV-WIV04); format: cell-based; details: Vero E6
SARS-CoV-2 = assay: Time of addition assay in Vero E6 cells; format: cell-based; details: 2 μM, 10 μM, 1 μM + P-gp inhibitor; entry, post entry and full-time
[6] = healthy human; ref NCT05197179 and NCT04766931; cited from earlier work

CCN(CC)CCCC(C)Nc1ccnc2cc(Cl)ccc12 (stereo not drawn) [Chloroquine phosphate] showed a CC50 (in vitro) of over 100000 nM.
Compound O=C[C@H](C[C@@H]1CCNC1=O)NC(=O)[C@H](CC1CCCCC1)NC(=O)c1cc2ccccc2[nH]1 [FB2001] has an EC50 [1] of 420 ± 80 nM, an EC90 [1] of 1360 ± 1730 nM and an EC50 [2] of 390 ± 10 nM. It also gave an EC90 [2] of 750 ± 10 nM, an EC50 [3] of 280 ± 110 nM and an EC90 [3] of 570 ± 210 nM. It also gave an EC50 [4] of 270 ± 50 nM, an EC90 [4] of 810 ± 200 nM and an EC50 ([5]; 10% human serum) of 1100 nM. It also gave an EC50 ([5]; 20% human serum) of 1910 nM, an EC50 ([5]; 30% human serum) of 2570 nM and an EC50 ([5]; 40% human serum) of 2150 nM. For the same compound, the EC50 ([5]; 50% human serum) was 2400 nM, the “antiviral activity in time of addition assay” value (SARS-CoV-2) was “potent antiviral activities under all conditions” and the CC50 (Vero E6 cells; CCK8, 24 h) was 243000 nM and 274000 nM. For the same compound, the CC50 (Vero E6 cells; CCK8, with P-gp inhibitor CP-100356) was 142000 nM and the safety and tolerability [6] was “good safety and tolerability”.
Work on CC(C)(C)[C@H](NC(=O)C(F)(F)F)C(=O)N1C[C@H]2[C@@H]([C@H]1C(=O)N[C@H](C#N)C[C@@H]1CCNC1=O)C2(C)C [PF-07321332, reference compound] yielded an EC50 [2] of 820 ± 20 nM, an EC90 [2] of 1540 ± 20 nM and an EC50 [3] of 490 ± 60 nM. It also gave an EC90 [3] of 1740 ± 260 nM, an EC50 [4] of 780 ± 210 nM and an EC90 [4] of 1890 ± 100 nM.
